{"source": "paper PMC10762068", "about": "“Selective blockade of Cav1.2 (α1C) versus Cav1.3 (α1D) L-type calcium channels by the black mamba toxin calciseptine” (Nature Communications, 2024)", "key": {"[1]": {"test_system": "Cav1.2 (ICav1.2) in isolated adult mouse ventricular myocytes", "assay_type": "cell-based"}, "Cav2.2 N-type": {"test_system": "Cav2.2 N-type", "test": "Ca2+ current in HEK-293T cells expressing Cav2.2", "assay_type": "cell-based", "conditions": "Cas 300 nM (n=11/N=3) and 1 µM (n=9/N=3); holding -90 mV, step +20 mV", "description": "(§1) HEK-293T (RRID:CVCL_2737) were obtained from the European Collection of Authenticated Cell Cultures (ECACC 96121229). The identity of HEK-293T has been confirmed by STR profiling and the cells have been eradicated from mycoplasma at ECACC. We routinely tested the cells for the absence of the mycoplasma contamination. Cells were cultivated at 37 °C in DMEM supplemented with GlutaMax, 10% fetal bovine serum and 1% penicillin/streptomycin (Invitrogen, Fisher Scientific, France). […]\n(§2) Macroscopic currents in HEK-293T cells were recorded at room temperature using an Axopatch 200B or Multiclamp 700B patchclamp amplifier (Molecular Devices, Sunnyvale CA). […]\n(§3) In all experiments of cellular electrophysiology, we employed synthetized analog of Cas, commercially available at Latoxan (ID: L8109). […] Its measured molecular mass (7036.26 Da average) was in accordance with the mass calculated from sequence data (7036.22 Da). […]\n(§4) n=10/N=3) channels. Peak current density wa s recorded starting f rom a holding potential of -80mV using an activating voltage step at -30mV for Cav3.1, f ro m a holding potential of -90mV using an activating voltage step at +20mV for Cav2.2 and f rom a holding potential of -80mV using an activating voltage step at 0mV for Cav2.1. Exam ples of recorded traces are reported. […]"}, "Cav2.1 P/Q type": {"test_system": "Cav2.1 P/Q type", "test": "Ca2+ current in HEK-293T cells expressing Cav2.1", "assay_type": "cell-based", "conditions": "Cas 300 nM (n=10/N=3) and 1 µM (n=10/N=3); holding -80 mV, step 0 mV", "description": "as §1, §2, §3, §4"}, "[2]": {"test_system": "DHP-sensitive Ca2+ channel in smooth muscle cells of the guinea-pig portal vein", "conditions": "cell-attached, 90 mM Ba2+ in the pipette; ref Teramoto et al, Pflugers Arch 1996; cited from earlier work", "description": "This po int deserves further specific investigations and addit ional structural studies are required to elucidate the interaction and binding properties between Cas and Cav1.2 channel."}, "Cav1.3_42a": {"test_system": "Cav1.3_42a", "test": "Whole cell recording of ICav1.3-42a in HEK-293T cells", "assay_type": "cell-based", "conditions": "for L-type Ca2+ current density: mean ± SEM, n=9", "description": "HEK-293T (RRID:CVCL_2737) were obtained from the European Collection of Authenticated Cell Cultures (ECACC 96121229). The identity of HEK-293T has been confirmed by STR profiling and the cells have been eradicated from mycoplasma at ECACC. We routinely tested the cells for the absence of the mycoplasma contamination. Cells were cultivated at 37 °C in DMEM supplemented with GlutaMax, 10% fetal bovine serum and 1% penicillin/streptomycin (Invitrogen, Fisher Scientific, France). Transfections were performed using jet-PEI (Ozyme, France) with a DNA mix containing either the plasmids that code for Cav1.2-GFP, β2a and α2δ (0.8 µg of each) or either the plasmids that code for Cav1.3 (with and without exon 42a), or Cav2.1, or either Cav2.2 combined with β2a and α2δ (0.8 µg of each supplemented with 0.025 µg of a plasmid coding for GFP). For Cav3.1 expression β2a and α2δ subunits were omitted. Plasmids coding for β2a, α2δ and Cav1.3 were created as described previously. Plasmid coding for Cav1.2-GFP was obtained from Dr. Catalucci[60]. After transfection cells were placed at 30 °C for 2–3 days and dissociated with Versene (Invitrogen, Fisher Scientific, France) and plated at a density of ~35 × 10^3 cells per 35 mm Petri dish for electrophysiological recordings, which were performed the following day.\nMacroscopic currents in HEK-293T cells were recorded at room temperature using an Axopatch 200B or Multiclamp 700B patchclamp amplifier (Molecular Devices, Sunnyvale CA). […] The extracellular solution contained (in mM): 135 NaCl, 20 TEACl, 5 BaCl2, 1 MgCl2, and 10 HEPES (pH adjusted to 7.25 with KOH, ~330 mOsm).\nIn all experiments of cellular electrophysiology, we employed synthetized analog of Cas, commercially available at Latoxan (ID: L8109). The native peptide was purified from the venom of Dendroaspis polylepis purchased from Latoxan, as previoulsly described. The pure peptide was obtained after gel filtration, cation exchange and C18 reversed phase chromatography. Its measured molecular mass (7036.26 Da average) was in accordance with the mass calculated from sequence data (7036.22 Da)."}}, "note": "Entries after “also recorded” stand apart in the source; their conditions may differ. Read-outs that look alike come from different tables or passages of the source. Positions of bridges follow the written chain, without caps; N, C: chain ends. No end group written: not given here."}
{"sequence": "RICYIHKASLPRATKTCVENTCYKMFIRTQREYISERGCGCPTAMWPYQTECCKGDRCNK (disulfide 3-22, 17-39, 41-52, 53-58 (inferred)) [Cas, calciseptine]", "values": [{"measurement": "L-type Ca2+ current density", "setting": "[1]; Cas 100 nM alone or + Nife 3 µM, +10 mV, Ctrl -9.81±1.32, n=9", "value": "-6.14±1.02", "unit": "pA/pF"}, {"measurement": "L-type Ca2+ current density", "setting": "[1]; Cas 100 nM alone or + Nife 3 µM, +20 mV, Ctrl -8.04±1.33, n=9", "value": "-5.17±0.93", "unit": "pA/pF"}, {"measurement": "L-type Ca2+ current density", "setting": "[1]; Cas 100 nM alone or + Nife 3 µM, +40 mV, Ctrl -3.68±0.68, n=9", "value": "-2.24±0.46", "unit": "pA/pF"}, {"measurement": "L-type Ca2+ current density", "setting": "[1]; Cas 100 nM alone or + Nife 3 µM, -10 mV, Ctrl -5.27±0.86, n=9", "value": "-3.45±0.54", "unit": "pA/pF"}, {"measurement": "L-type Ca2+ current density", "setting": "[1]; Cas 100 nM alone or + Nife 3 µM, -20 mV, Ctrl -1.26±0.27, n=9", "value": "-1.21±0.20", "unit": "pA/pF"}, {"measurement": "reduction of ICav1.2", "setting": "[1]; Cas 100 nM, 300 nM, 1 µM, voltages −25 mV to +40 mV, holding −55 mV", "value": "dose-dependently reduced"}, {"measurement": "L-type Ca2+ current density", "setting": "[1]; Cas 300 nM alone or + Nife 3 µM, 0 mV, Ctrl -10.51±1.51, n=7", "value": "-3.07±0.59", "unit": "pA/pF"}, {"measurement": "L-type Ca2+ current density", "setting": "[1]; Cas 300 nM alone or + Nife 3 µM, +10 mV, Ctrl -10.15±1.38, n=7", "value": "-3.66±0.55", "unit": "pA/pF"}, {"measurement": "L-type Ca2+ current density", "setting": "[1]; Cas 300 nM alone or + Nife 3 µM, +20 mV, Ctrl -8.09±1.11, n=7", "value": "-3.32±0.45", "unit": "pA/pF"}, {"measurement": "L-type Ca2+ current density", "setting": "[1]; Cas 300 nM alone or + Nife 3 µM, +40 mV, Ctrl -3.36±0.49, n=7", "value": "-1.58±0.23", "unit": "pA/pF"}, {"measurement": "L-type Ca2+ current density", "setting": "[1]; Cas 300 nM alone or + Nife 3 µM, -10 mV, Ctrl -6.58±1.29, n=7", "value": "-1.63±0.37", "unit": "pA/pF"}, {"measurement": "L-type Ca2+ current density", "setting": "[1]; Cas 300 nM alone or + Nife 3 µM, -20 mV, Ctrl -2.02±0.86, n=7", "value": "-0.52±0.07", "unit": "pA/pF"}, {"measurement": "L-type Ca2+ current density", "setting": "[1]; Cas 1 µM alone or + Nife 3 µM, 0 mV, Ctrl -9.85±1.04, n=6", "value": "-2.28±0.33", "unit": "pA/pF"}, {"measurement": "L-type Ca2+ current density", "setting": "[1]; Cas 1 µM alone or + Nife 3 µM, +10 mV, Ctrl -8.83±1,09, n=6", "value": "-3.38±0.15", "unit": "pA/pF"}, {"measurement": "L-type Ca2+ current density", "setting": "[1]; Cas 1 µM alone or + Nife 3 µM, +20 mV, Ctrl -6.41±0.90, n=6", "value": "-3.38±0.12", "unit": "pA/pF"}, {"measurement": "L-type Ca2+ current density", "setting": "[1]; Cas 1 µM alone or + Nife 3 µM, +40 mV, Ctrl -2.75±0.60, n=6", "value": "-1.35±0.11", "unit": "pA/pF"}, {"measurement": "L-type Ca2+ current density", "setting": "[1]; Cas 1 µM alone or + Nife 3 µM, -10 mV, Ctrl -7.71±0.98, n=6", "value": "-0.87±0.23", "unit": "pA/pF"}, {"measurement": "L-type Ca2+ current density", "setting": "[1]; Cas 1 µM alone or + Nife 3 µM, -20 mV, Ctrl -3.53±0.98, n=6", "value": "-0.34±0.07", "unit": "pA/pF"}, {"measurement": "effect on Cav2.2 current", "setting": "Cav2.2 N-type", "value": "failed to detect inhibitory effect; also recorded: had no effect"}, {"measurement": "effect on Cav2.1 current", "setting": "Cav2.1 P/Q type", "value": "failed to detect inhibitory effect; also recorded: had no effect"}, {"measurement": "block of 25-pS and 12-pS channel conductances", "setting": "[2]", "value": "Both conductances were blocked"}, {"measurement": "effect on ICav1.3-42a (I-V relationship)", "setting": "Cav1.3_42a; Cas 300 nM, all voltages tested, at peak p = 0.8148, n=9/N=4", "value": "no significant effect"}, {"measurement": "L-type Ca2+ current density", "setting": "Cav1.3_42a; Cas 300 nM, 0 mV, Ctrl -20.06± 5.37", "value": "-19.52± 4.21", "unit": "pA/pF"}, {"measurement": "L-type Ca2+ current density", "setting": "Cav1.3_42a; Cas 300 nM, +10 mV, Ctrl -13.99± 3.71", "value": "-13.16± 2.99", "unit": "pA/pF"}, {"measurement": "L-type Ca2+ current density", "setting": "Cav1.3_42a; Cas 300 nM, +20 mV, Ctrl -7.80± 2.21", "value": "-6.44± 1.89", "unit": "pA/pF"}, {"measurement": "L-type Ca2+ current density", "setting": "Cav1.3_42a; Cas 300 nM, +30 mV, Ctrl -2.75± 1.09", "value": "-1.13± 1.30", "unit": "pA/pF"}, {"measurement": "L-type Ca2+ current density", "setting": "Cav1.3_42a; Cas 300 nM, -10 mV, Ctrl -24.04± 6.83", "value": "-23.42± 5.08", "unit": "pA/pF"}, {"measurement": "L-type Ca2+ current density", "setting": "Cav1.3_42a; Cas 300 nM, -20 mV, Ctrl -21.97± 6.85", "value": "-21.55± 4.86", "unit": "pA/pF"}, {"measurement": "reduction of ICav1.3-42a", "setting": "Cav1.3_42a; all concentrations tested (up to 1 µM), holding −60 mV, step 0 mV, 300 nM n=13/N=4, 1 µM n=8/N=4", "value": "did not record a statistically significant reduction"}]}
